Two compounds from ChEMBL document CHEMBL1240404, “Rapamycin protects mice from staphylococcal enterotoxin B-induced toxic shock and blocks cytokine release in vitro and in vivo” (Antimicrob Agents Chemother, 2010) can be followed below.

For series [1], the system named is Mus musculus. Put plainly: Antiinflammatory activity in C3H/HeJ mouse assessed as reduction in SEB-induced increase in serum IL-6 level at 0.7 mg/kg, in after 24 hrs. The series is classed as functional, organism-based. On the set-up: dose 0.7 mg/kg.
Series [2] deals with PBMC. Kind of series: cells. The series is classed as functional. The note with it: Homo sapiens, 48 h.
The subject of series [3] is Mus musculus. Put plainly: Antiinflammatory activity in C3H/HeJ mouse assessed as reduction in SEB-induced increase in serum IL-6 level at 0.7 mg/kg, in after 75 hrs. It is filed as functional, organism-based. On the set-up: dose 0.7 mg/kg.
Series [4] has as its system PBMC. Put plainly: Inhibition of SEB-induced proliferation of human PBMC at 0.69 ug/ml after 48 hrs by [3H]thymidine incorporation assay. The series is classed as functional.
For series [5], the system named is Mus musculus. Put plainly: Protection against SEB-induced toxicity in C3H/HeJ mouse assessed as appearance of ruffled fur and lethargy at 0.7 mg/kg, in administered at 72 hrs after SEB challenge followed by 1.6 mg/kg, ip infusion after 30 to 96 hrs of SEB exposure. The series is classed as functional, organism-based.
Series [6] is described as follows: Drug level in C3H/HeJ mouse blood at 0.7 mg/kg, in after 1 hr. The note with it: inhaled or intranasal, read-out: Drug uptake. The series is classed as ADME, organism-based. On the set-up: dose 0.7 mg/kg.
The test system of series [7] is Mus musculus. Kind of series: Protection against SEB-induced toxicity in C3H/HeJ mouse assessed as survival rate at 0.7 mg/kg, in administered at 4 hrs after SEB challenge followed by 1.6 mg/kg, ip infusion after 24 to 96 hrs of SEB exposure. The series is classed as functional.
For series [8], the system named is PBMC. Put plainly: cells. The series is classed as functional. The note with it: Homo sapiens, 48 h. The source holds these as a separate data set.
The test system of series [9] is PBMC. Kind of series: cells. It is filed as functional. Particulars: Homo sapiens, 48 h. The source holds these as a separate data set.
Series [10] has as its system Mus musculus. Kind of series: Protection against SEB-induced toxicity in C3H/HeJ mouse assessed as attenuation of hypothermic response at 0.7 mg/kg, in administered at 42 hrs after SEB challenge followed by 1.6 mg/kg, ip infusion after 30 to 96 hrs of SEB exposure. It is filed as functional.
The nature of series [11]: Drug level in C3H/HeJ mouse blood at 0.7 mg/kg, in administered at 2 and 5 hrs followed by 1.6 mg/kg, ip infusion at 30, 48, 72 and 96 hrs measured at 97 hrs. Particulars: read-out: Drug uptake. It is filed as ADME, organism-based.
In series [12] the test system is PBMC. Put plainly: Inhibition of SEB-induced proliferation of human PBMC after 48 hrs by [3H]thymidine incorporation assay. The series is classed as functional, cell-based.
Series [13] has as its system PBMC. Kind of series: cells. It is filed as functional. Particulars: Homo sapiens, 48 h. This is another data set of the same source.
The subject of series [14] is Mus musculus. Kind of series: Protection against SEB-induced toxicity in C3H/HeJ mouse assessed as survival rate at 0.7 mg/kg, in administered at 3 hrs after SEB challenge followed by 1.6 mg/kg, ip infusion after 24 to 96 hrs of SEB exposure. It is filed as functional.
The test system of series [15] is PBMC. Put plainly: Inhibition of SEB-induced proliferation of human PBMC at 6.9 ug/ml after 48 hrs by [3H]thymidine incorporation assay. It is filed as functional.
The subject of series [16] is Mus musculus. Kind of series: Protection against SEB-induced toxicity in C3H/HeJ mouse assessed as attenuation of hypothermic response at 0.7 mg/kg, in administered at 5 hrs after SEB challenge. It is filed as functional, organism-based. On the set-up: dose 0.7 mg/kg.
Series [17] relates to Mus musculus. Kind of series: Protection against SEB-induced toxicity in C3H/HeJ mouse assessed as survival rate at 1.2 mg/kg, in administered at 2 hrs after SEB challenge followed by 5 mg/kg, ip infusion after 24 to 96 hrs of SEB exposure. It is filed as functional.
Series [18] relates to Mus musculus. Kind of series: Protection against SEB-induced toxicity in C3H/HeJ mouse assessed as survival rate at 0.7 mg/kg, in administered at 2 hrs after SEB challenge followed by 1.6 mg/kg, ip infusion after 24 to 96 hrs of SEB exposure. It is filed as functional.
Series [19] can be described thus: Drug level in C3H/HeJ mouse blood at 0.03 mg/kg, in administered at 2 and 5 hrs followed by 0.08 mg/kg, ip infusion at 30, 48, 72 and 96 hrs measured at 97 hrs. It is filed as ADME, organism-based. Particulars: read-out: Drug uptake.
In series [20] the test system is Mus musculus. Kind of series: Protection against SEB-induced toxicity in C3H/HeJ mouse assessed as survival rate at 1.2 mg/kg, in administered at 5 hrs after SEB challenge followed by 5 mg/kg, ip infusion after 24 to 96 hrs of SEB exposure. It is filed as functional.
For series [21], the system named is PBMC. Kind of series: cells. Particulars: Homo sapiens, 48 h. The series is classed as functional. The source holds these as a separate data set.
Series [22] relates to Mus musculus. Put plainly: Inhibition of SEB-induced weight loss in C3H/HeJ mouse assessed as weight gain at 0.7 mg/kg, in administered at 24 hrs after SEB challenge followed by 1.6 mg/kg, ip infusion after 30 to 96 hrs of SEB exposure. It is filed as functional, organism-based.
Series [23] relates to PBMC. Put plainly: cells. The series is classed as functional. Particulars: Homo sapiens, 48 h. This is another data set of the same source.
The test system of series [24] is Mus musculus. Kind of series: Antiinflammatory activity in C3H/HeJ mouse assessed as reduction in SEB-induced increase in serum IL-6 level at 0.7 mg/kg, in after 5 hrs. The series is classed as functional, organism-based. Also noted: dose 0.7 mg/kg.
Series [25] concerns Mus musculus. Kind of series: Antiinflammatory activity in C3H/HeJ mouse assessed as reduction in SEB-induced increase in serum IL-6 level at 0.7 mg/kg, in after 51 hrs. The series is classed as functional, organism-based. Also noted: dose 0.7 mg/kg.
The test system of series [26] is Mus musculus. Put plainly: Inhibition of SEB-induced weight loss in C3H/HeJ mouse assessed as weight gain at 0.7 mg/kg, in measured after 150 hrs of SEB challenge. The series is classed as functional.
Series [27] concerns Mus musculus. Kind of series: Protection against SEB-induced toxicity in C3H/HeJ mouse assessed as survival rate at 0.7 mg/kg, in administered at 5 hrs after SEB challenge followed by 1.6 mg/kg, ip infusion after 24 to 96 hrs of SEB exposure. It is filed as functional.
For series [28], the system named is PBMC. Put plainly: Inhibition of SEB-induced proliferation of human PBMC at 6.9 ug/ml after 3 hrs by [3H]thymidine incorporation assay. It is filed as functional.
The subject of series [29] is PBMC. Kind of series: cells. It is filed as functional. The note with it: Homo sapiens, 48 h. The source holds these as a separate data set.
Series [30] has as its system Mus musculus. Put plainly: Protection against SEB-induced toxicity in C3H/HeJ mouse assessed as attenuation of hypothermic response at 0.7 mg/kg, in administered at 24 hrs after SEB challenge followed by 1.6 mg/kg, ip infusion after 30 to 96 hrs of SEB exposure. The series is classed as functional, organism-based.
The subject of series [31] is PBMC. Kind of series: Cytotoxicity against human PBMC at 10 ug/ml after 48 hrs by [3H]thymidine incorporation assay. It is filed as cell-based.
Series [32] relates to Mus musculus. Kind of series: Protection against SEB-induced toxicity in C3H/HeJ mouse assessed as lethality at 1.2 mg/kg, in administered at 5 hrs after SEB challenge followed by 5 mg/kg, ip infusion after 24 to 96 hrs of SEB exposure. It is filed as functional.

Each structure is given as a SMILES string. The source made the active and inactive calls. The calls are words filed in the database; no cut-off is given here.

As for `CO[C@H]1C[C@@H]2CC[C@@H](C)[C@@](O)(O2)C(=O)C(=O)N2CCCC[C@H]2C(=O)O[C@H]([C@H](C)C[C@@H]2CC[C@@H](O)[C@H](OC)C2)CC(=O)[C@H](C)/C=C(\C)[C@@H](O)[C@@H](OC)C(=O)[C@H](C)C[C@H](C)/C=C/C=C/C=C/1C` [SIROLIMUS], the inhibition entry in series [1], in series [3], in [22] and in series [25] was “Active” throughout. The inhibition at 6.9 µg/mL was determined as 97% in series [2]; 67% in series [13]; 94% in series [15]; 100% in series [21]; 100% in series [23]; 40% in series [28]. The inhibition at 6.9 µg/mL in series [29] worked out at 77%. Further, the inhibition at 0.69 µg/mL in series [4] was found to be 56%. In addition, the result in series [5], in [16] and in series [30] was Active. For the same compound, the concentration at 1 h in series [6] turned out to be 492 ng/mL. Further, the Activity amounted to 100% in [7]; 20% in series [10]; 100% in series [14]; 100% in series [17]; 100% in series [18]; 10% in series [20]. The Activity in series [27] is reported as 100%; in [31], “Non-toxic”. Besides, the figures for the inhibition at 0.0069 µg/mL in series [8] and in series [9] were 36% and 34%, respectively. The concentration at 97 h in [11] amounted to 622 ng/mL; in series [19], 38 ng/mL. Further, the inhibition entry in [12] is “Dose-dependent effect”. For the same compound, in series [24], the inhibition entry was “inactive”. Also, the inhibition in vivo at 0.7 mg/kg in series [26] turned out to be 8%.

Consider `C[C@@H]1C[C@H]2[C@@H]3CCC4=CC(=O)C=C[C@]4(C)[C@@]3(F)[C@@H](O)C[C@]2(C)[C@@]1(O)C(=O)CO` [DEXAMETHASONE], for which the Activity in series [32] is recorded as 90%.
